Values of other authors in PMC4877185 (Molecular imaging and biology : MIB : the official …, 2016).

How the values were obtained:
GLP-1R [1] = details: read-out: cAMP EC50; unlabeled conjugates, GLP-1R agonist
GLP-1R [2] = details: greater affinity than truncated antagonist exendin-(9–39)-amide

Row | EC50 (GLP-1R [1]) [nM] | Substance | Binding affinity for GLP-1R relative to exendin-(9–39)-amide (GLP-1R [2]) [fold]
1 | 0.027 | DO3A-VS-Cys^40-exendin-4 | 
2 |  | Exendin-4 | ~10
